Data published in patent US20150105252A1, “SUBSTITUTED PYRAZOLES AS HERBICIDES” (E I DU PONT DE NEMOURS AND COMPANY, priority 2013, published 2015).

Key:
[1] = test system: wheat; assay: Test A preemergence; type: in vivo, Triticum aestivum
Summary of the method: (§1)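 Growth medium: loam soil blended with sand. Preemergence treatment used a directed soil spray right after planting; postemergence treatment targeted seedlings at one to two leaves (2–10 cm height). Response was judged by eye relative to untreated plants about 10 days later on a 0–100 control scale.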

[2] = test system: foxtail, giant; assay: Test C postemergence; type: in vivo, Setaria faberii; conditions: for Foxtail, Giant plant response rating: scale 0 to 100
Source text: (§2) Seeds of plant species selected from blackgrass (Alopecurus myosuroides), ryegrass, Italian (Italian ryegrass, Lolium multiflorum), wheat (winter wheat, Triticum aestivum), galium (catchweed bedstraw, Galium aparine), corn (Zea mays), crabgrass, large (large crabgrass, Digitaria sanguinalis), foxtail, giant (giant foxtail, Setaria faberii), johnsongrass (Sorghum halepense), lambsquarters (Chenopodium album), morningglory (Ipomoea coccinea), nutsedge, yellow (yellow nutsedge, Cyperus esculentus), pigweed (redroot pigweed, Amaranthus retroflexus), ragweed (common ragweed, Ambrosia elation), soybean (Glycine max), barnyardgrass (Echinochloa crus-galli), oilseed rape (Brassica napus), waterhemp (common waterhemp, Amaranthus rudis), oat, wild (wild oat, Avena fatua), kochia (Kochia scoparia), Surinam grass (Brachiaria decumbens), foxtail, green (green foxtail, Setaria viridis), goosegrass (Eleusine indica), bromegrass, downy (downy bromegrass, Bromus tectorum), nightshade (eastern black nightshade, Solanum ptycanthum), cocklebur (common cocklebur, Xanthium strumarium), cupgrass, woolly (woolly cupgrass, Eriochloa villosa), bermudagrass (Cynodon dactylon), sunflower, (common oilseed sunflower, Helianthus annuus), Russian thistle (Salsola kali), and velvetleaf (Abutilon theophrasti) were planted into a blend of loam soil and sand and treated preemergence with test chemicals formulated in a non-phytotoxic solvent mixture which included a surfactant.
(§3) At the same time, plants selected from these crop and weed species and also chickweed (common chickweed, Stellaria media), canarygrass (littleseed canarygrass, Phalaris minor), and deadnettle (henbit deadnettle, Lamium amplexicaule), were planted in pots containing Redi-Earth® planting medium (Scotts Company, 14111 Scottslawn Road, Marysville, Ohio 43041) comprising spaghnum peat moss, vermiculite, wetting agent and starter nutrients and treated with postemergence applications of test chemicals formulated in the same manner. Plants ranged in height from 2 to 18 cm (1- to 4-leaf stage) for postemergence treatments. Treated plants and controls were maintained in a greenhouse for 13 to 15 days, after which time all species were compared to controls and visually evaluated. Plant response ratings, summarized in Table C, are based on a scale of 0 to 100 where 0 is no effect and 100 is complete control. A dash (-) response means no test result.

[3] = test system: blackgrass; assay: Test C postemergence; type: in vivo, Alopecurus myosuroides; conditions: for Blackgrass plant response rating: scale 0 to 100
Source text: as §2, §3

[4] = test system: crabgrass, large; assay: Test A preemergence; type: in vivo, Digitaria sanguinalis
Summary of the method: as §1

[5] = test system: velvetleaf; assay: Test A preemergence; type: in vivo, Abutilon theophrasti
Summary of the method: as §1

[6] = test system: crabgrass, large; assay: Test C postemergence; type: in vivo, Digitaria sanguinalis; conditions: for Crabgrass, Large plant response rating: scale 0 to 100
Source text: as §2, §3

[7] = test system: foxtail, giant; assay: Test A postemergence; type: in vivo, Setaria faberii
Summary of the method: as §1

[8] = test system: wheat; assay: Test C preemergence; type: in vivo, Triticum aestivum; conditions: for Plant response rating (scale of 0 to 100), Wheat: 250 g ai/ha
Source text: as §2, §3

[9] = test system: corn; assay: Test C preemergence; type: in vivo, Zea mays; conditions: for Plant response rating (scale of 0 to 100), Corn: 250 g ai/ha
Source text: as §2, §3

[10] = test system: johnsongrass; assay: Test C preemergence; type: in vivo, Sorghum halepense; conditions: for Plant response rating (scale of 0 to 100), Johnsongrass: 250 g ai/ha
Source text: as §2, §3

[11] = test system: ragweed; assay: Test C preemergence; type: in vivo, Ambrosia elation; conditions: for Plant response rating (scale of 0 to 100), Ragweed: 250 g ai/ha
Source text: as §2, §3

[12] = test system: sedge, umbrella; assay: Test B flood; type: in vivo, Cyperus difformis; conditions: 250 g ai/ha, visual rating on 0 to 100 scale (0 no effect, 100 complete control), 13 to 15 days
Summary of the method: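 Greenhouse assay lasting 13 to 15 days. Treatment was into water flooding pots 3 cm deep, at the 2-leaf stage, with that level sustained afterwards. Scores compare treated with control plants visually, 100 denoting complete control and 0 no effect; a dash marks no test result.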

[13] = Preemergence, 1000 g ai/ha, 0 to 100 scale, 0 no effect, 100 complete control
[14] = postemergence, 250 g ai/ha, scale 0 to 100 (0 no effect, 100 complete control)
[15] = postemergence, 62 g ai/ha, scale 0 to 100, 0 no effect, 100 complete control
[16] = postemergence, 125 g ai/ha, scale 0 to 100, 0 no effect, 100 complete control
[17] = Postemergence, 1000 g ai/ha, visual rating after approx. 10 days, 0 to 100 scale (0 no effect, 100 complete control)
[18] = preemergence, 125 g ai/ha, visual injury, 0 to 100 scale, approx. 10 days
[19] = preemergence, 500 g ai/ha, visual injury after approx. 10 days, 0 to 100 scale (0 no effect, 100 complete control)
[20] = preemergence, 31 g ai/ha, scale 0 to 100 (0 no effect, 100 complete control), 13 to 15 days
[21] = preemergence, 62 g ai/ha, 13 to 15 days, scale 0 to 100, 0 = no effect, 100 = complete control
[22] = preemergence, 125 g ai/ha, scale 0 to 100, 0 is no effect, 100 is complete control
[23] = Preemergence, 500 g ai/ha, 0 to 100 scale, 0 no effect, 100 complete control
[24] = Postemergence, 500 g ai/ha, visual rating after approx. 10 days, 0 to 100 scale (0 no effect, 100 complete control)
[25] = postemergence, 125 g ai/ha, about 10 days, visual rating on 0 to 100 scale (0 no effect, 100 complete control)
[26] = Preemergence, 4 g ai/ha, scale 0 to 100
[27] = Preemergence, 8 g ai/ha, scale 0 to 100
[28] = Preemergence, 16 g ai/ha, scale 0 to 100
[29] = preemergence, 31 g ai/ha, visual rating, scale 0 to 100 (0 no effect, 100 complete control), 13 to 15 days

SMILES: CCc1cc(C(=O)NCC(F)(F)F)nn1Cc1cccc(OC(F)(F)F)c1 [Compound 20]
- Wheat plant response rating [1, 13]: 20
- Foxtail, Giant plant response rating ([2]; Postemergence, 31 g ai/ha): 10
- Plant response rating, Foxtail, Giant [2, 14]: 15
- Plant response rating, Foxtail, Giant [2, 15]: 10
- Plant response rating, Foxtail, Giant [2, 16]: 10
- Blackgrass plant response rating ([3]; Postemergence, 31 g ai/ha): 5
- Plant response rating, Blackgrass [3, 14]: 20
- Plant response rating, Blackgrass [3, 15]: 5
- Plant response rating, Blackgrass [3, 16]: 15
- Crabgrass, Large plant response rating [4, 13]: 90
- Velvetleaf plant response rating [5, 13]: 70
- Crabgrass, Large plant response rating ([6]; Postemergence, 31 g ai/ha): 10
- Plant response rating, Crabgrass, Large [6, 14]: 45
- Plant response rating, Crabgrass, Large [6, 15]: 20
- Plant response rating, Crabgrass, Large [6, 16]: 35
- Foxtail, Giant plant response rating [7, 17]: 70

SMILES: CCCNC(=O)c1cc(CC)n(Cc2cccc(OC(F)(F)F)c2)n1 [Compound 27]
- Wheat plant response rating [1, 13]: 20
- Foxtail, Giant plant response rating ([2]; Postemergence, 31 g ai/ha): 0
- Plant response rating, Foxtail, Giant [2, 14]: 20
- Plant response rating, Foxtail, Giant [2, 15]: 0
- Plant response rating, Foxtail, Giant [2, 16]: 10
- Blackgrass plant response rating ([3]; Postemergence, 31 g ai/ha): 10
- Plant response rating, Blackgrass [3, 14]: 20
- Plant response rating, Blackgrass [3, 15]: 15
- Plant response rating, Blackgrass [3, 16]: 15
- Crabgrass, Large plant response rating [4, 13]: 100
- Velvetleaf plant response rating [5, 13]: 30
- Crabgrass, Large plant response rating ([6]; Postemergence, 31 g ai/ha): 0
- Plant response rating, Crabgrass, Large [6, 14]: 45
- Plant response rating, Crabgrass, Large [6, 15]: 5
- Plant response rating, Crabgrass, Large [6, 16]: 10
- Foxtail, Giant plant response rating [7, 17]: 70

SMILES: CCc1cc(C(=O)NOC(C)C)nn1Cc1cccc(OC(F)(F)F)c1 [Compound 70]
- Wheat plant response rating [1, 18]: 50
- Wheat plant response rating [1, 19]: 30
- Plant response rating (scale of 0 to 100), Wheat ([8]; Preemergence): 75
- Wheat plant response rating [8, 20]: 5
- Plant response rating, Wheat [8, 21]: 10
- Wheat plant response rating [8, 22]: 65
- Foxtail, Giant plant response rating ([2]; Postemergence, 31 g ai/ha): 5
- Plant response rating, Foxtail, Giant [2, 14]: 25
- Plant response rating, Foxtail, Giant [2, 15]: 10
- Plant response rating, Foxtail, Giant [2, 16]: 15
- Plant response rating (scale of 0 to 100), Corn ([9]; Preemergence): 85
- Corn plant response rating [9, 20]: 40
- Plant response rating, Corn [9, 21]: 60
- Corn plant response rating [9, 22]: 70
- Blackgrass plant response rating ([3]; Postemergence, 31 g ai/ha): 0
- Plant response rating, Blackgrass [3, 14]: 25
- Plant response rating, Blackgrass [3, 15]: 5
- Crabgrass, Large plant response rating [4, 23]: 100
- Crabgrass, Large plant response rating [4, 18]: 100
- Velvetleaf plant response rating [5, 23]: 80
- Velvetleaf plant response rating [5, 18]: 40
- Crabgrass, Large plant response rating ([6]; Postemergence, 31 g ai/ha): 5
- Plant response rating, Crabgrass, Large [6, 14]: 45
- Plant response rating, Crabgrass, Large [6, 15]: 10
- Plant response rating, Crabgrass, Large [6, 16]: 40
- Plant response rating (scale of 0 to 100), Johnsongrass ([10]; Preemergence): 95
- Johnsongrass plant response rating [10, 20]: 20
- Plant response rating, Johnsongrass [10, 21]: 65
- Johnsongrass plant response rating [10, 22]: 80
- Plant response rating (scale of 0 to 100), Ragweed ([11]; Preemergence): 40
- Ragweed plant response rating [11, 20]: 0
- Plant response rating, Ragweed [11, 21]: 25
- Ragweed plant response rating [11, 22]: 30
- Foxtail, Giant plant response rating [7, 24]: 90
- Foxtail, Giant plant response rating [7, 25]: 90

SMILES: CCONC(=O)c1cc(CC)n(Cc2cccc(OC(F)(F)F)c2)n1 [Compound 72]
- Wheat plant response rating [1, 18]: 50
- Wheat plant response rating [1, 19]: 10
- Plant response rating (scale of 0 to 100), Wheat ([8]; Preemergence): 85
- Wheat plant response rating [8, 20]: 5
- Plant response rating, Wheat [8, 21]: 20
- Wheat plant response rating [8, 22]: 50
- Foxtail, Giant plant response rating ([2]; Postemergence, 31 g ai/ha): 5
- Foxtail, Giant plant response rating ([2]; postemergence, 62 g ai/ha): 5
- Plant response rating, Foxtail, Giant [2, 14]: 15
- Plant response rating, Foxtail, Giant [2, 16]: 5
- Plant response rating (scale of 0 to 100), Corn ([9]; Preemergence): 75
- Corn plant response rating [9, 20]: 30
- Plant response rating, Corn [9, 21]: 45
- Corn plant response rating [9, 22]: 60
- Blackgrass plant response rating ([3]; Postemergence, 31 g ai/ha): 5
- Blackgrass plant response rating ([3]; postemergence, 62 g ai/ha): 10
- Plant response rating, Blackgrass [3, 14]: 40
- Plant response rating, Blackgrass [3, 16]: 40
- Crabgrass, Large plant response rating [4, 23]: 100
- Crabgrass, Large plant response rating [4, 18]: 90
- Velvetleaf plant response rating [5, 23]: 100
- Velvetleaf plant response rating [5, 18]: 70
- Crabgrass, Large plant response rating ([6]; Postemergence, 31 g ai/ha): 5
- Crabgrass, Large plant response rating ([6]; postemergence, 62 g ai/ha): 5
- Plant response rating, Crabgrass, Large [6, 14]: 25
- Plant response rating, Crabgrass, Large [6, 16]: 5
- Plant response rating (scale of 0 to 100), Johnsongrass ([10]; Preemergence): 75
- Johnsongrass plant response rating [10, 20]: 40
- Plant response rating, Johnsongrass [10, 21]: 55
- Johnsongrass plant response rating [10, 22]: 65
- Plant response rating (scale of 0 to 100), Ragweed ([11]; Preemergence): 60
- Ragweed plant response rating [11, 20]: 0
- Plant response rating, Ragweed [11, 21]: 50
- Ragweed plant response rating [11, 22]: 55
- Foxtail, Giant plant response rating [7, 24]: 90
- Foxtail, Giant plant response rating [7, 25]: 80

SMILES: CCOc1cc(C(=O)NCC(F)(F)F)nn1Cc1cc(C(F)(F)F)nn1C [Compound 140]
- Wheat plant response rating [1, 18]: 70
- Wheat plant response rating [1, 19]: 100
- Plant response rating, Sedge, Umbrella [12]: 95
- Plant response rating, Wheat [8, 26]: 0
- Plant response rating, Wheat [8, 27]: 0
- Plant response rating, Wheat [8, 28]: 0
- Wheat plant response rating [8, 29]: 35
- Plant response rating, Corn [9, 26]: 0
- Plant response rating, Corn [9, 27]: 0
- Plant response rating, Corn [9, 28]: 0
- Corn plant response rating [9, 29]: 10
- Crabgrass, Large plant response rating [4, 18]: 100
- Crabgrass, Large plant response rating [4, 19]: 100
- Velvetleaf plant response rating [5, 18]: 60
- Velvetleaf plant response rating [5, 19]: 100
- Plant response rating, Johnsongrass [10, 26]: 20
- Plant response rating, Johnsongrass [10, 27]: 5
- Plant response rating, Johnsongrass [10, 28]: 5
- Johnsongrass plant response rating [10, 29]: 25
- Plant response rating, Ragweed [11, 26]: 5
- Plant response rating, Ragweed [11, 27]: 5
- Plant response rating, Ragweed [11, 28]: 25
- Ragweed plant response rating [11, 29]: 70
- Foxtail, Giant plant response rating ([7]; Postemergence, 500 g ai/ha, 0 to 100 scale (0 no effect, 100 complete control)): 90
- Foxtail, Giant plant response rating [7, 25]: 80
